Legend:
[1] = test system: J774.2 macrophage cell line; experiment: Macrophage cytotoxicity; type: cell-based; conditions: Mus musculus; J774.2 macrophages; means of three separate experiments; read-out: Macrophage Toxicity IC50
Source text: Macrophages are cells naturally infected by Leishmania parasites. For that reason, they were used as host cell models, specifically the J774.2 macrophage cell line [European Collection of Authenticated Cell Cultures (ECACC) number 91051511]. Cells were used to test the cytotoxicity of the new compound (establishing IC50 via testing different drug concentrations on cells) and they were used for parasite infectivity assays.

L. infantum = experiment: Metabolite excretion (1H-NMR of supernatants); type: cell-based; conditions: IC25, 72 h, vs untreated
Source text: Active compounds can trigger metabolic alterations within parasite mitochondria. Those alterations can be proven by observing alterations in the excreted metabolites quantity. Trypanosomatids excrete different metabolites to the medium in order to get rid of the carbonate skeleton instead of oxidizing glucose to CO2 and water as vertebrates do. Each metabolite is produced in a certain area of the mitochondrion and by a certain enzyme, thus, it can be inferred that these particular zones or enzymes are being affected by drug action. For this experiment, cultures of each species with an initial concentration of 5 × 10^5 cells/mL were stored at 27 °C for 72 h with IC25 as the test dosage. After this time elapsed, cultures were centrifuged at 400× g for 10 min and supernatants were collected and examined by ^1H-NMR.

[2] = test system: L. infantum amastigote forms; experiment: In vitro activity against amastigote forms in J774.2 macrophages; type: cell-based
Procedure: A similar method was used for the amastigote assay. First, J774.2 macrophages were harvested in 24-well microplates with round coverslips at the bottom, where cells will attach. Once cells are fixated, they are infected with promastigotes (10 per each macrophage cell) and compounds were added to reach the same final concentrations as in the previous experiment. After one day, promastigotes transform into amastigotes and microplates are maintained for two days at 37 °C. Once that time is elapsed, coverslips are collected and fixated to a microscope slide and dyed with Giemsa. Amastigotes are then counted using a microscope from a total of 200 random macrophages.

[3] = test system: L. braziliensis promastigote forms; experiment: In vitro activity against promastigote forms; type: cell-based
Procedure: (§1) Three Leishmania species were studied, each one as a pathogenic agent for each clinical form: L. donovani for VL, L. infantum for CL, and L. braziliensis for ML.
(§2) In order to perform this experiment, promastigotes were harvested in 24-well microplates and different drug concentrations were added in order to reach 12.5, 25, 50, and 100 µM and maintained at 27 °C for 48 h. They were counted after that time was elapsed in a Neubauer haemocytrometric chamber.

[4] = test system: L. infantum promastigote forms; experiment: In vitro activity against promastigote forms; type: cell-based
Procedure: as §1, §2

[5] = test system: L. donovani promastigote forms; experiment: In vitro activity against promastigote forms; type: cell-based
Procedure: as §1, §2

L. infantum Fe-SOD = experiment: SOD inhibition assay (Beyer and Fridovich method); type: biochemical; conditions: L. infantum excreted Fe-SOD
Source text: Superoxide dismutase (SOD) is a key enzyme for cell survival against oxidative stress. Host cells induce oxidative bursts to create reactive oxygen species (ROS) within parasite cells that are toxic to them. For that reason, Leishmania cells rely on SOD to counteract this defense. While vertebrate SOD is linked to a copper, zinc (Cu/Zn-SOD), or manganese atom (Mn-SOD), trypanosomatid SOD is linked to an iron atom (Fe-SOD). This difference makes SOD a perfect target for drugs: if they are able to reduce its activity, cell survival will be compromised. For testing, if drugs are able to reduce this enzymatic activity, promastigotes are largely harvested and then stressed in the same culture medium without calf serum, in order to trigger stress and make them excrete SOD. This SOD is collected and semi-purified by a method described in Martín-Montes et al. 2017 [10]. Excreted Fe-SOD was mixed with the different reagents of the Beyer and Fridovich method and measured in a UV spectrophotometer twice. The second measurement took place after 10 min under direct light and constant stirring. Commercial human SOD (Cu/Zn-SOD) (Sigma®, St. Louis, MO, USA) activity was also measured for comparison.

[6] = J774.2 Macrophage IC50/Parasite IC50

## c1cc2nc(c1)CNCCCNCCCNCCCNCCCNCCCNC2 [Py33333]
[1]
  IC50: 1500 ± 75.3 µM
L. infantum
  Acetate production and excretion variation: -20.61%
  D-lactate production and excretion variation: -19.58%
  L-alanine production and excretion variation: -19.83%
  Pyruvate production and excretion variation: -22.89%
  Succinate production and excretion variation: -20.30%
[2]; [6]
  Selectivity Index Amastigote Forms: 882
[2]; Leishmania infantum, in J774.2 macrophages, means of three separate experiments, read-out: Compound IC50 Amastigote Forms
  IC50: 1.7 ± 0.2 µM
[3]; [6]
  Selectivity Index Promastigote Forms: 41
[3]; Leishmania braziliensis, 48 h, 27 °C, means of three separate experiments, read-out: Compound IC50 Promastigote Forms
  IC50: 36.5 ± 1.1 µM
[4]; [6]
  Selectivity Index Promastigote Forms: 176
[4]; Leishmania infantum, 48 h, 27 °C, means of three separate experiments, read-out: Compound IC50 Promastigote Forms
  IC50: 8.51 ± 0.6 µM
[5]; [6]
  Selectivity Index Promastigote Forms: 21
[5]; Leishmania donovani, 48 h, 27 °C, means of three separated experiments, read-out: Compound IC50 Promastigote Forms
  IC50: 70.5 ± 5.2 µM
L. infantum Fe-SOD
  Fe-SOD activity inhibition (in words): no inhibition
